Experimental data reported in US8791158B2, “Methods of treating meibomian gland dysfunction” (GTX, Inc., priority 2010, dated 2014).

How the values were obtained:
[1] = tested on: Meibomian gland secretions of rabbits; conditions: cited from earlier work
[2] = tested on: acute, orchiectomized (ORX) rabbit model; assay: Tear fatty acid composition (palmitate:stearate ratio) after Compound 2 or TP, Example 3; assay type: in vivo; conditions: ORX rabbits
Source text: The goal of this study was to compare the effect of Compound 2 to testosterone propionate (TP) on tear composition in an acute, orchiectomized (ORX) rabbit model.
Fifteen New Zealand white rabbits weighing approximately 3 lbs were allowed to acclimate for 4 weeks before the start of the study. Animals were weighed on day 0 of the study, randomized according to body weight and allotted to the following dose groups:
Pre-dose tear and blood samples were collected. Animals from groups 2-5 were to premedicated with glycopyrrolate (0.02 mg/kg) and then anesthesia was induced with a combination of ketamine (15 mg/kg): medetomidine (0.25 mg/kg).
Anesthesia was maintained with isoflurane (1 liter/hr). Orchiectomy was performed using a scrotal incision. Animals were revived from anesthesia using atipamezole (1 mg/kg) SQ. Analgesia was provided with buprenorphine (0.05 mg/kg) Immediately after the animals had recovered from anesthesia, they received their first dose with the appropriate test articles as indicated above.
Drug dosing was done once daily for 14 days. Blood was collected at 60 minutes post administration of the last dose of drug and plasma separated for HPLC analysis of parent drug concentrations.
Tears were collected using Schirmer tear strips (Alcon, Tex.) on day 0 before surgery, 24 hours after the last administration of drug (day 15) and also at 42 days (6 weeks after start of study). The tears were stored at −80° C. prior to lipid analysis.
Lipids were hydrolyzed, extracted from the Schirmer strips, derivatized, and subjected to gas chromatography with flame ionization detector (GCFID) to evaluate the lipid composition.
The samples were evaluated for the presence of 28 saturated and unsaturated fatty acids that included methyl caprate (C10:0), methyl laurate (C12:0), methyl 11-dodecenoate (C12:1), methyl myristate (C14:0), methyl myristoleate (C14:1), methyl palmitate (C16:0), methyl palmitoleate (C16:1), methyl stearate (C18:0), methyl oleate (C18:1), methyl vaccenate (C18:1), methyl linoleate (C18:2), methyl gamma linoleate (C18:3), methyl linoleate (C18:3), methyl arachidate (C20:0), methyl 11-eicosenoate (C20:1), methyl 11,14 eicosadinoate (C20:2), methyl 8,11,14 eicosatrienoate (C20:3), methyl eicosapentaenoate (C20:5), methyl behenate (C22:0), methyl erucate (C22:1), methyl 13,16 docosaenoate (C22:2), methyl docosatetraenoate (C22:4), methyl docosapentaenoate (C22:5), methyl docosahexaenoate (C22:6), methyl lignocerate (C24:0), and methyl nervonate (C24:1).
The area under the curve for each individual peak was determined using GC ChemStation software. […] These samples were then washed with a saturated solution of NaCl+0.1% formic acid (FA). […] These samples were all in the predose tear group. Two more samples from the predose group and one sample from Vehicle Intact treated group had small but clear and well to separated peaks that were included in the analysis.
To normalize for the tear content, the lipid composition was expressed as a ratio of the lipid that was most affected by castration (palmitate) to one which remained relatively constant (stearate). Blood was also collected on day 15 (24 hours after last drug administration) of the study, plasma separated and analyzed for Compound 2.
The last dose of drug or vehicle was administered on day 15 of the study Animals were left untreated for 4 weeks (washout period) before tear samples were collected again on Schirmer tear strips and analyzed as indicated above.

C[C@]12CC[C@H]3[C@@H](CCC4=CC(=O)CC[C@@H]43)[C@@H]1CC[C@@H]2O [19-nortestosterone]
Effect on fatty acid profile in total and neutral lipid fractions of Meibomian gland secretions [1]: modulated the fatty acid profile

CCC(=O)O[C@H]1CC[C@H]2[C@@H]3CCC4=CC(=O)CC[C@]4(C)[C@H]3CC[C@]12C [TP, testosterone propionate, reference compound]
Increase of tear palmitate:stearate ratio relative to intact animals ([2]; 2.5 mg/kg, 14 days): two times that of intact animals | Tear palmitate:stearate ratio after 4 week washout ([2]; SQ 2.5 mg/kg for two weeks, then untreated 4 weeks): 1.67±0.17
